According to patent publication US20110306606A1, “NOVEL 2,6-SUBSTITUTED-3-NITROPYRIDINE DERIVATIVE, METHOD FOR PREPARING SAME, AND PHARMACEUTICAL COMPOSITION INCLUDING SAME” (priority 2008, published 2011):

What follows are molecules tested on Osteoblasts (Calvarial cells) (assay: Cytotoxicity test (MTT)). Details: 1 μM compound, 72 hours, in comparison with vehicle control.

Row | SMILES | Cell viability (%) Calvarial cell [%]
1 | CC1=NCCN1c1ccc([N+](=O)[O-])c(Nc2ccc(N3CCC(O)CC3)c(F)c2)n1 [Compound 240, 2-{[3-fluoro-4-(4-hydroxypiperidino)]phenylamino}-6-[(2-methyl-4,5-dihydro)imidazol-1-yl]-3-nitropyridine] | 97
2 | CC(C)(C)Nc1ccc([N+](=O)[O-])c(Nc2ccc(N3CCC(O)CC3)c(F)c2)n1 [Compound 243, 2-{[3-fluoro-4-(4-hydroxypiperidino)]phenylamino}-6-(t-butylamino)-3-nitropyridine] | 97
3 | O=[N+]([O-])c1ccc(N2CCNCC2)nc1Nc1ccc(N2CCC(O)CC2)c(F)c1 [Compound 245, 2-{[3-fluoro-4-(4-hydroxypiperidino)]phenylamino}-6-(piperazin-1-yl)-3-nitropyridine] | 101
4 | O=[N+]([O-])c1ccc(N2CCOCC2)nc1Nc1ccc(N2CCC(O)CC2)c(F)c1 [Compound 247, 2-{[3-fluoro-4-(4-hydroxypiperidino)]phenylamino}-6-morpholino-3-nitropyridine] | 94
5 | CNc1ccc([N+](=O)[O-])c(Nc2ccc(N3CCC(N)CC3)c(F)c2)n1 [Compound 248, 2-{[3-fluoro-4-(4-aminopiperidino)]phenylamino}-6-(methylamino)-3-nitropyridine] | 95
6 | CC(C)Nc1ccc([N+](=O)[O-])c(Nc2ccc(N3CCC(N)CC3)c(F)c2)n1 [Compound 249, 2-{[3-fluoro-4-(4-aminopiperidino)]phenylamino}-6-(isopropylamino)-3-nitropyridine] | 101
7 | CC(C)CNc1ccc([N+](=O)[O-])c(Nc2ccc(N3CCC(N)CC3)c(F)c2)n1 [Compound 250, 2-{[3-fluoro-4-(4-aminopiperidino)]phenylamino}-6-(isobutylamino)-3-nitropyridine] | 85
8 | NC1CCN(c2ccc(Nc3nc(N4CCC(O)CC4)ccc3[N+](=O)[O-])cc2F)CC1 [Compound 251, 2-{[3-fluoro-4-(4-aminopiperidino)]phenylamino}-6-(4-hydroxypiperidino)-3-nitropyridine] | 97
9 | CN1CCN(c2ccc([N+](=O)[O-])c(Nc3ccc(N4CCC(N)CC4)c(F)c3)n2)CC1 [Compound 254, 2-{[3-fluoro-4-(4-aminopiperidino)]phenylamino}-6-(4-methylpiperazin-1-yl)-3-nitropyridine] | 101
10 | NC1CCN(c2ccc(Nc3nc(N4CCOCC4)ccc3[N+](=O)[O-])cc2F)CC1 [Compound 255, 2-{[3-fluoro-4-(4-aminopiperidino)]phenylamino}-6-morpholino-3-nitropyridine] | 100
11 | NC1CCN(c2ccc([N+](=O)[O-])c(Nc3ccc(N4CCC(N)CC4)c(F)c3)n2)CC1 [Compound 256] | 104
12 | NC1CCN(c2ccc(Nc3nc(NCCCN4CCOCC4)ccc3[N+](=O)[O-])cc2F)CC1 [Compound 260, 2-{[3-fluoro-4-(4-aminopiperidino)]phenylamino}-6-[(3-morpholin-1-yl)propylamino]-3-nitropyridine] | 107
13 | CNc1ccc([N+](=O)[O-])c(Nc2ccc(N3CCCCC3C)c(F)c2)n1 (stereo not shown) [Compound 261, 2-{[3-fluoro-4-(2-methylpiperidino)]phenylamino}-6-(methylamino)-3-nitropyridine] | 114
14 | CC(C)Nc1ccc([N+](=O)[O-])c(Nc2ccc(N3CCCCC3C)c(F)c2)n1 (stereo not shown) [Compound 262, 2-{[3-fluoro-4-(2-methylpiperidino)]phenylamino}-6-(isopropylamino)-3-nitropyridine] | 109
15 | CC(C)CNc1ccc([N+](=O)[O-])c(Nc2ccc(N3CCCCC3C)c(F)c2)n1 (stereo not shown) [Compound 263, 2-{[3-fluoro-4-(2-methylpiperidino)]phenylamino}-6-(isobutylamino)-3-nitropyridine] | 108
16 | CC1CCCCN1c1ccc(Nc2nc(NC(C)(C)C)ccc2[N+](=O)[O-])cc1F (stereo not shown) [Compound 264, 2-{[3-fluoro-4-(2-methylpiperidino)]phenylamino}-6-(t-butylamino)-3-nitropyridine] | 117
17 | CC1CCCCN1c1ccc(Nc2nc(N3CCC(O)CC3)ccc2[N+](=O)[O-])cc1F (stereo not shown) [Compound 265, 2-{[3-fluoro-4-(2-methylpiperidino)]phenylamino}-6-(4-hydroxypiperidino)-3-nitropyridine] | 104
18 | CC1=NCCN1c1ccc([N+](=O)[O-])c(Nc2ccc(N3CCCCC3C)c(F)c2)n1 (stereo not shown) [Compound 266] | 121
19 | CC1CCCCN1c1ccc(Nc2nc(N3CCNCC3)ccc2[N+](=O)[O-])cc1F (stereo not shown) [Compound 267, 2-{[3-fluoro-4-(2-methylpiperidino)]phenylamino}-6-(piperazin-1-yl)-3-nitropyridine] | 107

Row | SMILES | Cell viability (%) Calvarial cell [%]
20 | CC1CCCCN1c1ccc(Nc2nc(N3CCN(C)CC3)ccc2[N+](=O)[O-])cc1F (stereo not shown) [Compound 268, 2-{[3-fluoro-4-(2-methylpiperidino)]phenylamino}-6-(4-methylpiperazin-1-yl)-3-nitropyridine] | 104
21 | CC1CCCCN1c1ccc(Nc2nc(N3CCOCC3)ccc2[N+](=O)[O-])cc1F (stereo not shown) [Compound 269, 2-{[3-fluoro-4-(2-methylpiperidino)]phenylamino}-6-morpholino-3-nitropyridine] | 113
22 | CC1CCCCN1c1ccc(Nc2nc(N3CCC(N)CC3)ccc2[N+](=O)[O-])cc1F (stereo not shown) [Compound 270, 2-{[3-fluoro-4-(2-methylpiperidino)]phenylamino}-6-(4-aminopiperidino)-3-nitropyridine] | 95
23 | CC1CCCCN1c1ccc(Nc2nc(NCc3ccncc3)ccc2[N+](=O)[O-])cc1F (stereo not shown) [Compound 271, 2-{[3-fluoro-4-(2-methylpiperidino)]phenylamino}-6-[(4-pyridyl)methylamino]-3-nitropyridine] | 107
24 | CC1CCCCN1c1ccc(Nc2nc(NCCCn3ccnc3)ccc2[N+](=O)[O-])cc1F (stereo not shown) [Compound 272, 2-{[3-fluoro-4-(2-methylpiperidino)]phenylamino}-6-[(3-imidazol-1-yl)propylamino]-3-nitropyridine] | 98
25 | CC1CCCCN1c1ccc(Nc2nc(NCCN3CCOCC3)ccc2[N+](=O)[O-])cc1F (stereo not shown) [Compound 273, 2-{[3-fluoro-4-(2-methylpiperidino)]phenylamino}-6-[2-(morpholin-1-yl)ethylamino]-3-nitropyridine] | 115
26 | CC1CCCCN1c1ccc(Nc2nc(NCCCN3CCOCC3)ccc2[N+](=O)[O-])cc1F (stereo not shown) [Compound 274, 2-{[3-fluoro-4-(2-methylpiperidino)]phenylamino}-6-[(3-morpholin-1-yl)propylamino]-3-nitropyridine] | 102
27 | CNc1ccc([N+](=O)[O-])c(Nc2ccc(N3CCCC(CO)C3)c(F)c2)n1 (stereo not shown) [Compound 275, 2-{[3-fluoro-4-(3-hydroxymethylpiperidino)]phenylamino}-6-(methylamino)-3-nitropyridine] | 121
28 | CC(C)Nc1ccc([N+](=O)[O-])c(Nc2ccc(N3CCCC(CO)C3)c(F)c2)n1 (stereo not shown) [Compound 276, 2-{[3-fluoro-4-(3-hydroxymethylpiperidino)]phenylamino}-6-(isopropylamino)-3-nitropyridine] | 102
29 | CC(C)CNc1ccc([N+](=O)[O-])c(Nc2ccc(N3CCCC(CO)C3)c(F)c2)n1 (stereo not shown) [Compound 277, 2-{[3-fluoro-4-(3-hydroxymethylpiperidino)]phenylamino}-6-(isobutylamino)-3-nitropyridine] | 107
30 | CC(C)(C)Nc1ccc([N+](=O)[O-])c(Nc2ccc(N3CCCC(CO)C3)c(F)c2)n1 (stereo not shown) [Compound 278, 2-{[3-fluoro-4-(3-hydroxymethylpiperidino)]phenylamino}-6-(t-butylamino)-3-nitropyridine] | 118
31 | O=[N+]([O-])c1ccc(N2CCC(O)CC2)nc1Nc1ccc(N2CCCC(CO)C2)c(F)c1 (stereo not shown) [Compound 279, 2-{[3-fluoro-4-(3-hydroxymethylpiperidino)]phenylamino}-6-(4-hydroxypiperidino)-3-nitropyridine] | 102
32 | CC1=NCCN1c1ccc([N+](=O)[O-])c(Nc2ccc(N3CCCC(CO)C3)c(F)c2)n1 (stereo not shown) [Compound 280, 2-{[3-fluoro-4-(3-hydroxymethylpiperidino)]phenylamino}-6-[(2-methyl-4,5-dihydro)imidazol-1-yl]-3-nitropyridine] | 103
33 | O=[N+]([O-])c1ccc(N2CCNCC2)nc1Nc1ccc(N2CCCC(CO)C2)c(F)c1 (stereo not shown) [Compound 281, 2-{[3-fluoro-4-(3-hydroxymethylpiperidino)]phenylamino}-6-(piperazin-1-yl)-3-nitropyridine] | 107
34 | CN1CCN(c2ccc([N+](=O)[O-])c(Nc3ccc(N4CCCC(CO)C4)c(F)c3)n2)CC1 (stereo not shown) [Compound 282, 2-{[3-fluoro-4-(3-hydroxymethylpiperidino)]phenylamino}-6-(4-methylpiperazin-1-yl)-3-nitropyridine] | 107
35 | O=[N+]([O-])c1ccc(N2CCOCC2)nc1Nc1ccc(N2CCCC(CO)C2)c(F)c1 (stereo not shown) [Compound 283, 2-{[3-fluoro-4-(3-hydroxymethylpiperidino)]phenylamino}-6-morpholino-3-nitropyridine] | 103
36 | NC1CCN(c2ccc([N+](=O)[O-])c(Nc3ccc(N4CCCC(CO)C4)c(F)c3)n2)CC1 (stereo not shown) [Compound 284, 2-{[3-fluoro-4-(3-hydroxymethylpiperidino)]phenylamino}-6-(4-aminopiperidino)-3-nitropyridine] | 100
37 | O=[N+]([O-])c1ccc(NCc2cccnc2)nc1Nc1ccc(N2CCCC(CO)C2)c(F)c1 (stereo not shown) [Compound 285, 2-{[3-fluoro-4-(3-hydroxymethylpiperidino)]phenylamino}-6-[(3-pyridyl)methylamino]-3-nitropyridine] | 106
